Entries after “also recorded” stand apart in the source; their conditions may differ.
Tested on: Kyn levels in BxPC3 cells (kynurenine generated by IDO1)
Test: Cellular Kyn assay (automated Kyn screening assay)
Format: cell-based
Conditions: not given

Row | SMILES | activity in cellular Kyn assay (in words)
1 | Cc1ccc(NC(=O)OC[C@]23CN(Cc4ccccc4)C[C@H]2C[C@H]2C[C@@H]3C2(C)C)cc1 [compound 9, ((3aS,4R,6R,7aS)-2-benzyl-5,5-dimethyloctahydro-3aH-4,6-methanoisoindol-3a-yl) methyl p-tolylcarbamate] | abolished activity; also recorded: loss of activity
2 | CC(C)(C)c1ccc(S(=O)(=O)N2CC3CCCCC3(COC(=O)Nc3ccc(I)cc3)C2)cc1 (centres unmarked) [compound 25, (2-((4-(tert-butyl)phenyl)sulfonyl)octahydro-3aH-isoindol-3a-yl) methyl (4-iodophenyl) carbamate] | inactive
3 | Cc1ccc(OC(=O)OC[C@]23CN(S(=O)(=O)c4ccc(C(C)(C)C)cc4)C[C@H]2C[C@H]2C[C@@H]3C2(C)C)cc1 [compound 13, ((3aS,4R,6R,7aS)-2-((4-(tert-butyl)phenyl)sulfonyl)-5,5-dimethyloctahydro-3aH-4,6-methanoisoindol-3a-yl)methyl p-tolyl carbonate] | did not improve activity; also recorded: inactive
4 | CC(C)(C)c1ccc(C(=O)N2C[C@H]3C[C@H]4C[C@H](C4(C)C)[C@@]3(COC(=O)Nc3ccc(I)cc3)C2)cc1 [compound 16, ((3aS,4R,6R,7aS)-2-(4-(tert-butyl)benzoyl)-5,5-dimethyloctahydro-3aH-4,6-methanoisoindol-3a-yl)methyl (4-iodophenyl)carbamate] | abolished activity

Same assay, conditions: Homo sapiens, BXPC-3, 48 h, IFN-γ, L-Trp and compounds 48 h, mean ± SD, read-out: IC50 (Kyn assay), reduction of kynurenine levels

Row | SMILES | IC50
5 | CC1(C)[C@H]2C[C@@H]3CN(S(=O)(=O)c4cccnc4)C[C@]3(COC(=O)Nc3ccc(I)cc3)[C@@H]1C2 [compound 61, ((3aS,4R,6R,7aS)-5,5-dimethyl-2-(pyridin-3-ylsulfonyl)octahydro-3aH-4,6-methanoisoindol-3a-yl)methyl (4-iodophenyl)carbamate] | 6100 ± 900 nM
6 | CC(C)(C)c1ccc(S(=O)(=O)N2C[C@H]3C[C@H]4C[C@H](C4(C)C)[C@@]3(COC(=O)Nc3ccc(C#CCCO)cc3)C2)cc1 [compound 53, ((3aS,4R,6R,7aS)-2-((4-(tert-butyl)phenyl)sulfonyl)-5,5-dimethyloctahydro-3aH-4,6-methanoisoindol-3a-yl)methyl (4-(4-hydroxybut-1-yn-1-yl)phenyl)carbamate] | 2500 ± 200 nM
7 | COc1ccc(S(=O)(=O)N2C[C@H]3C[C@H]4C[C@H](C4(C)C)[C@@]3(COC(=O)Nc3ccc(C)cc3)C2)cc1 [compound 57, ((3aS,4R,6R,7aS)-2-((4-methoxyphenyl)sulfonyl)-5,5-dimethyloctahydro-3aH-4,6-methanoisoindol-3a-yl)methyl p-tolylcarbamate] | > 10000 nM
8 | Cc1ccc(NC(=O)OC[C@]23CN(S(=O)(=O)c4ccccc4Br)C[C@H]2C[C@H]2C[C@@H]3C2(C)C)cc1 [compound 59, ((3aS,4R,6R,7aS)-2-((2-bromophenyl)sulfonyl)-5,5-dimethyloctahydro-3aH-4,6-methanoisoindol-3a-yl)methyl p-tolylcarbamate] | 6200 ± 1700 nM
9 | CC1(C)[C@H]2C[C@@H]3CN(S(=O)(=O)c4ccc([Si](C)(C)C)cc4)C[C@]3(COC(=O)Nc3ccc(I)cc3)[C@@H]1C2 [compound 77, ((3aS,4R,6R,7aS)-5,5-dimethyl-2-((4-(trimethylsilyl)phenyl)sulfonyl)octahydro-3aH-4,6-methanoisoindol-3a-yl)methyl (4-iodophenyl)carbamate] | 260 ± 90 nM
10 | Cc1ccc(NC(=O)OC[C@]23CN(S(=O)(=O)c4ccc(OC(F)(F)F)cc4)C[C@H]2C[C@H]2C[C@@H]3C2(C)C)cc1 [compound 58, ((3aS,4R,6R,7aS)-5,5-dimethyl-2-((4-(trifluoromethoxy)phenyl)sulfonyl)octahydro-3aH-4,6-methanoisoindol-3a-yl)methyl p-tolylcarbamate] | 3000 ± 1300 nM
11 | CC(C)(C)c1ccc(S(=O)(=O)N2C[C@H]3C[C@H]4C[C@H](C4(C)C)[C@@]3(COC(=O)Nc3ccc(C(F)(F)F)cc3)C2)cc1 [compound 45, ((3aS,4R,6R,7aS)-2-((4-(tert-butyl)phenyl)sulfonyl)-5,5-dimethyloctahydro-3aH-4,6-methanoisoindol-3a-yl)methyl (4-(trifluoromethyl)phenyl)carbamate] | > 10000 nM
12 | CC1(C)[C@H]2C[C@@H]3CN(S(=O)(=O)c4ccccc4)C[C@]3(COC(=O)Nc3ccc(I)cc3)[C@@H]1C2 [compound 65, ((3aS,4R,6R,7aS)-5,5-dimethyl-2-(phenylsulfonyl)octahydro-3aH-4,6-methanoisoindol-3a-yl)methyl (4-iodophenyl)carbamate] | 2600 ± 500 nM
13 | CC(C)(C)c1ccc(S(=O)(=O)N2C[C@H]3C[C@H]4C[C@H](C4(C)C)[C@@]3(COC(=O)Nc3cccc(Br)c3)C2)cc1 [compound 39, ((3aS,4R,6R,7aS)-2-((4-(tert-butyl)phenyl)sulfonyl)-5,5-dimethyloctahydro-3aH-4,6-methanoisoindol-3a-yl)methyl (3-bromophenyl)carbamate] | 9900 ± 1580 nM
14 | CC(C)(C)c1ccc(S(=O)(=O)N2C[C@H]3C[C@H]4C[C@H](C4(C)C)[C@@]3(COC(=O)Nc3ccccc3)C2)cc1 [compound 32, ((3aS,4R,6R,7aS)-2-((4-(tert-butyl)phenyl)sulfonyl)-5,5-dimethyloctahydro-3aH-4,6-methanoisoindol-3a-yl)methyl phenylcarbamate] | 7000 ± 1600 nM
15 | CC(C)(C)c1ccc(-c2ccc(S(=O)(=O)N3C[C@H]4C[C@H]5C[C@H](C5(C)C)[C@@]4(COC(=O)Nc4ccc(I)cc4)C3)cc2)cc1 [compound 76, ((3aS,4R,6R,7aS)-2-((4'-(tert-butyl)-[1,1'-biphenyl]-4-yl)sulfonyl)-5,5-dimethyloctahydro-3aH-4,6-methanoisoindol-3a-yl)methyl (4-iodophenyl)carbamate] | > 10000 nM
16 | Cc1ccc(NC(=O)OC[C@]23CN(S(=O)(=O)c4ccc(C(F)(F)F)cc4)C[C@H]2C[C@H]2C[C@@H]3C2(C)C)cc1 [compound 56, ((3aS,4R,6R,7aS)-5,5-dimethyl-2-((4-(trifluoromethyl)phenyl)sulfonyl)octahydro-3aH-4,6-methanoisoindol-3a-yl)methyl p-tolylcarbamate] | 2500 ± 1100 nM

More lines, now with the values ahead:

Row | IC50 | SMILES
17 | 720 ± 270 nM | Cc1ccc(S(=O)(=O)N2C[C@H]3C[C@H]4C[C@H](C4(C)C)[C@@]3(COC(=O)Nc3ccc(I)cc3)C2)cc1 [compound 68, ((3aS,4R,6R,7aS)-5,5-dimethyl-2-tosyloctahydro-3aH-4,6-methanoisoindol-3a-yl)methyl (4-iodophenyl)carbamate]
18 | 1300 ± 300 nM | Cc1ccc(S(=O)(=O)N2C[C@H]3C[C@H]4C[C@H](C4(C)C)[C@@]3(COC(=O)Nc3ccc(I)cc3)C2)cn1 [compound 62, ((3aS,4R,6R,7aS)-5,5-dimethyl-2-((6-methylpyridin-3-yl)sulfonyl)octahydro-3aH-4,6-methanoisoindol-3a-yl)methyl (4-iodophenyl)carbamate]
19 | 190 ± 70 nM | CCC(C)(C)c1ccc(S(=O)(=O)N2C[C@H]3C[C@H]4C[C@H](C4(C)C)[C@@]3(COC(=O)Nc3ccc(I)cc3)C2)cc1 [compound 75, ((3aS,4R,6R,7aS)-5,5-dimethyl-2-((4-(tert-pentyl)phenyl)sulfonyl)octahydro-3aH-4,6-methanoisoindol-3a-yl)methyl (4-iodophenyl)carbamate]
20 | 390 ± 70 nM | CC(C)(C)c1ccc(S(=O)(=O)N2C[C@H]3C[C@H]4C[C@H](C4(C)C)[C@@]3(COC(=O)Nc3ccccc3Br)C2)cc1 [compound 38, ((3aS,4R,6R,7aS)-2-((4-(tert-butyl)phenyl)sulfonyl)-5,5-dimethyloctahydro-3aH-4,6-methanoisoindol-3a-yl)methyl (2-bromophenyl)carbamate]
21 | 340 ± 170 nM | CC1(C)[C@H]2C[C@@H]3CN(S(=O)(=O)c4ccc(-c5ccccc5)cc4)C[C@]3(COC(=O)Nc3ccc(I)cc3)[C@@H]1C2 [compound 70, ((3aS,4R,6R,7aS)-2-([1,1'-biphenyl]-4-ylsulfonyl)-5,5-dimethyloctahydro-3aH-4,6-methanoisoindol-3a-yl)methyl (4-iodophenyl)carbamate]
22 | 450 ± 390 nM | CC1(C)CCC(C)(C)c2cc(S(=O)(=O)N3C[C@H]4C[C@H]5C[C@H](C5(C)C)[C@@]4(COC(=O)Nc4ccc(I)cc4)C3)ccc21 [compound 73, ((3aS,4R,6R,7aS)-5,5-dimethyl-2-((5,5,8,8-tetramethyl-5,6,7,8-tetrahydronaphthalen-2-yl)sulfonyl)octahydro-3aH-4,6-methanoisoindol-3a-yl)methyl (4-iodophenyl)carbamate]
23 | 850 ± 270 nM | CN(C)C(=O)C(C)(C)c1ccc(S(=O)(=O)N2C[C@H]3C[C@H]4C[C@H](C4(C)C)[C@@]3(COC(=O)Nc3ccc(I)cc3)C2)cc1 [compound 87, ((3aS,4R,6R,7aS)-2-((4-(1-(dimethylamino)-2-methyl-1-oxopropan-2-yl)phenyl)sulfonyl)-5,5-dimethyloctahydro-3aH-4,6-methanoisoindol-3a-yl)methyl (4-iodophenyl)carbamate]
24 | 510 ± 80 nM | CC(C)(C)c1ccc(S(=O)(=O)N2C[C@H]3C[C@H]4C[C@H](C4(C)C)[C@@]3(COC(=O)Nc3ccc(Cl)cc3)C2)cc1 [compound 35, ((3aS,4R,6R,7aS)-2-((4-(tert-butyl)phenyl)sulfonyl)-5,5-dimethyloctahydro-3aH-4,6-methanoisoindol-3a-yl)methyl (4-chlorophenyl)carbamate]
25 | 140 ± 20 nM | CC(C)c1ccc(S(=O)(=O)N2C[C@H]3C[C@H]4C[C@H](C4(C)C)[C@@]3(COC(=O)Nc3ccc(I)cc3)C2)cc1 [compound 69, ((3aS,4R,6R,7aS)-2-((4-isopropylphenyl)sulfonyl)-5,5-dimethyloctahydro-3aH-4,6-methanoisoindol-3a-yl)methyl (4-iodophenyl)carbamate]
26 | 250 ± 80 nM | CCOC(=O)C(C)(C)c1ccc(S(=O)(=O)N2C[C@H]3C[C@H]4C[C@H](C4(C)C)[C@@]3(COC(=O)Nc3ccc(I)cc3)C2)cc1 [compound 89, Ethyl 2-(4-(((3aS,4R,6R,7aS)-3a-((((4-iodophenyl)carbamoyl)oxy)methyl)-5,5-dimethyloctahydro-2H-4,6-methanoisoindol-2-yl)sulfonyl)phenyl)-2-methylpropanoate]

From publication PMC12811658, “Design, Synthesis, and Structural Evolution of Pseudo‐Natural Product IDO1 Inhibitors and Degraders” (Angewandte Chemie (International Ed. in English), 2025)
